Patent US11339161B2, “Triazolo pyridines as modulators of gamma-secretase” (Boehringer Ingelheim International GmbH, priority 2017, dated 2022)
Like-named read-outs stand apart in the source and are kept apart here.

Columns and labels:
FLT4 (VEGFR3) = FLT4 (VEGFR3) (Homo sapiens, UniProt P35916); assay: Z'-LYTE SelectScreen biochemical kinase assay FLT4 (VEGFR3)
Text: (§1) Thermo Fisher Scientific SelectScreen™ Biochemical Kinase Profiling Service Z′-LYTE™ Screening Protocol and Assay Conditions Assay Theory
(§2) The […] biochemical assay employs a fluorescence-based, coupled-enzyme format and is based on the differential sensitivity of phosphorylated and non-phosphorylated peptides to proteolytic cleavage. The peptide substrate is labeled with two fluorophores—one at each end—that make up a FRET pair. In the primary reaction, the kinase transfers the gamma-phosphate of ATP to a single tyrosine, serine or threonine residue in a synthetic FRET-peptide. In the secondary reaction, a site-specific protease recognizes and cleaves non-phosphorylated FRET-peptides. Phosphorylation of FRET-peptides suppresses cleavage by the Development Reagent. Cleavage disrupts FRET between the donor (i.e., coumarin) and acceptor (i.e., fluorescein) fluorophores on the FRET-peptide, whereas uncleaved, phosphorylated FRET-peptides maintain FRET. A ratiometric method, which calculates the ratio (Emission Ratio=Coumarin emission (445 nm)/Fluorescein emission (520 nm)) of donor emission to acceptor emission after excitation of the donor fluorophore at 400 nm, is used to quantitate reaction progress, as shown in the equation below. A significant benefit of this ratiometric method for quantitating reaction progress is the elimination of well-to-well variations in FRET-peptide concentration and signal intensities. As a result, the assay yields very high Z′-factor values (>0.7) at a low percent phosphorylation. Both cleaved and uncleaved FRET-peptides contribute to the fluorescence signals and therefore to the Emission Ratio. The extent of phosphorylation of the FRET-peptide can be calculated from the Emission Ratio. The Emission Ratio will remain low if the FRET-peptide is phosphorylated (i.e., no kinase inhibition) and will be high if the FRET-peptide is non-phosphorylated (i.e., kinase inhibition).
(§3) The Test Compounds are screened in 1% DMSO (final) in the well. For 10 point titrations, 3-fold serial dilutions are conducted from the starting concentration of the customer's choosing.
(§4) All Peptide/Kinase Mixtures are diluted to a 2× working concentration in the appropriate Kinase Buffer (see section Kinase Specific Assay Conditions for a complete description).
(§5) All ATP Solutions are diluted to a 4× working concentration in Kinase Buffer (50 mM HEPES pH 7.5, 0.01% BRIJ-35, 10 mM MgCl2, 1 mM EGTA). ATP Km apparent is previously determined using a Z″-LYTE assay.
(§6) The Development Reagent is diluted in Development Buffer (see section Kinase-Specific Assay Conditions—Direct and Cascade for a complete description).
(§7) Bar-coded Corning, low volume NBS, black 384-well plate (Corning Cat. #4514) • 1. 100 nL—100× Test Compound in 100% DMSO • 2. 2.4 μL—Kinase buffer • 3. 5 μL—2× Peptide/Kinase Mixture • 4. 2.5 μL—4×ATP Solution • 5. 30—second plate shake • 6. 60—minute Kinase Reaction incubation at room temperature • 7. 5 μL—Development Reagent Solution • 8. 30—second plate shake • 9. 60—minute Development Reaction incubation at room temperature • 10. Read on fluorescence plate reader and analyze the data Z′-LYTE Assay Controls
(§8) SelectScreen Kinase Profiling Service uses XLfit from IDBS. The dose response curve is curve fit to model number 205 (sigmoidal dose-response model).
The 2×FLT4 (VEGFR3)/Tyr 04 mixture is prepared in 50 mM HEPES pH 7.5, 0.01% BRIJ-35, 10 mM MgCl2, 4 mM MnCl2, 1 mM EGTA, 2 mM DTT. The final 10 μL Kinase Reaction consists of 2-10.5 ng FLT4 (VEGFR3) and 2 μM Tyr 04 in 50 mM HEPES pH 7.5, 0.01% BRIJ-35, 10 mM MgCl2, 2 mM MnCl2, 1 mM EGTA, 1 mM DTT. After the 1 hour Kinase Reaction incubation, 5 μL of a 1:64 dilution of Development Reagent B is added.

LYN B = LYN B (Homo sapiens, UniProt P07948); assay: Z'-LYTE SelectScreen biochemical kinase assay LYN B
Text: as §1, §2, §3, §4, §5, §6, §7, §8
The 2×LYN B/Tyr 02 mixture is prepared in 50 mM HEPES pH 7.5, 0.01% BRIJ-35, 10 mM MgCl2, 1 mM EGTA. The final 10 μL Kinase Reaction consists of 0.85-14.8 ng LYN B and 2 μM Tyr 02 in 50 mM HEPES pH 7.5, 0.01% BRIJ-35, 10 mM MgCl2, 1 mM EGTA. After the 1 hour Kinase Reaction incubation, 5 μL of a 1:128 dilution of Development Reagent A is added.

Aβ total = Aβ total levels in H4 neuroglioma cells stably expressing human APP695 (MSD electrochemiluminescence); type: cell-based; conditions: selectivity ratio vs. Aβtotal, Table 4a
Method: Cells were plated out to near confluency. The compounds to be tested were received as 10 mM stocks in 100% DMSO. A dilution series was initially generated in 100% DMSO and then diluted 200-fold in cell culture media such that the tested concentration range was 30 μM to 0.1 nM and the final DMSO concentration was 0.5%. The diluted compounds were incubated with the cells for 22 hours in an incubator at 37° C. and 5% CO2. Aβ42 levels were measured post-incubation from the supernatant of the cells using an Aβ42 specific electrochemiluminescence assay provided by Meso Scale Discovery (Catalog #L21CA-1). The measurement of Aβ42 levels were performed according to the manufacturer's protocol.
Aβ total levels were likewise determined using a specific electrochemiluminescence assay provided by Meso Scale Discovery (Catalog #L21ZA-1) according to the manufacturer's protocol.

[1] = 10 μmolar compound concentration, ATP at Km app, read-out: FLT4 (VEGFR3) inhibition
[2] = read-out: % Inhibition mean FLT4 (VEGFR3)
[3] = 10 μmolar compound concentration, ATP at Km app, read-out: LYN B inhibition
[4] = read-out: % Inhibition mean LYN B

Sequence of FLT4 (VEGFR3) (P35916 25-1363): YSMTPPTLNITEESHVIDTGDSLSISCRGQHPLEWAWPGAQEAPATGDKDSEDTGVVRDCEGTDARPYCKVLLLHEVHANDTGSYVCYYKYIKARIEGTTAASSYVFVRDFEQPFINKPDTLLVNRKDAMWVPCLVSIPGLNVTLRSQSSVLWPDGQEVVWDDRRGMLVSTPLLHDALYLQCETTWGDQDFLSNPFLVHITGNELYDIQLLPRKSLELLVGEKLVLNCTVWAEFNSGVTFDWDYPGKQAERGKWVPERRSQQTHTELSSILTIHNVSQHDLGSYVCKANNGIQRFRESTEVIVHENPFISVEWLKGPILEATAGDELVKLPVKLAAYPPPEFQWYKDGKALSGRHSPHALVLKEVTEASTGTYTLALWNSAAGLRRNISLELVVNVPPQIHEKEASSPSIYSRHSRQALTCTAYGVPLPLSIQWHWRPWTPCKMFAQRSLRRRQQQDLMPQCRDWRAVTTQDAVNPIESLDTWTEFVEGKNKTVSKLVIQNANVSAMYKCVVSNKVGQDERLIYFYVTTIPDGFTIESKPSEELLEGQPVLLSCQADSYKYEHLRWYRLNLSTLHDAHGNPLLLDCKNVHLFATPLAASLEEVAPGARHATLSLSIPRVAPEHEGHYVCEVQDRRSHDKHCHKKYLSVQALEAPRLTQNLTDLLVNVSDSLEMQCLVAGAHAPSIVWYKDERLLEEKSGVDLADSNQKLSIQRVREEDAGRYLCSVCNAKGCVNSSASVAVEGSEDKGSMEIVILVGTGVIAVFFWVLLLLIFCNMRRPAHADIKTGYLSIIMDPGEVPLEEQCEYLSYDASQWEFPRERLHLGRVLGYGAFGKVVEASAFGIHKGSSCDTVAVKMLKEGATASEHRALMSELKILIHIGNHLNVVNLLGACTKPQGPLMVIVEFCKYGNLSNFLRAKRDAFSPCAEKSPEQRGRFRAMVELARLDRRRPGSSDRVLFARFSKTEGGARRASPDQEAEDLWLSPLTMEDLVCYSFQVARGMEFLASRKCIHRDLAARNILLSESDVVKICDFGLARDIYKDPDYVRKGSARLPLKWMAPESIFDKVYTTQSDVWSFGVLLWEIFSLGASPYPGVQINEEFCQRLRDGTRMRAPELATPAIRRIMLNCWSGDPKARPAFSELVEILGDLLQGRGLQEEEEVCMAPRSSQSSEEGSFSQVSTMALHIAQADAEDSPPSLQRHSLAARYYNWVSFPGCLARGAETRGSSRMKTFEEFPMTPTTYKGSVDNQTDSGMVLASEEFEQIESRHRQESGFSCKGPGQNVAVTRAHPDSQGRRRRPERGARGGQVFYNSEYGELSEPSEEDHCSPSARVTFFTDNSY
Sequence of LYN B (P07948 1-491 isoform P07948-2): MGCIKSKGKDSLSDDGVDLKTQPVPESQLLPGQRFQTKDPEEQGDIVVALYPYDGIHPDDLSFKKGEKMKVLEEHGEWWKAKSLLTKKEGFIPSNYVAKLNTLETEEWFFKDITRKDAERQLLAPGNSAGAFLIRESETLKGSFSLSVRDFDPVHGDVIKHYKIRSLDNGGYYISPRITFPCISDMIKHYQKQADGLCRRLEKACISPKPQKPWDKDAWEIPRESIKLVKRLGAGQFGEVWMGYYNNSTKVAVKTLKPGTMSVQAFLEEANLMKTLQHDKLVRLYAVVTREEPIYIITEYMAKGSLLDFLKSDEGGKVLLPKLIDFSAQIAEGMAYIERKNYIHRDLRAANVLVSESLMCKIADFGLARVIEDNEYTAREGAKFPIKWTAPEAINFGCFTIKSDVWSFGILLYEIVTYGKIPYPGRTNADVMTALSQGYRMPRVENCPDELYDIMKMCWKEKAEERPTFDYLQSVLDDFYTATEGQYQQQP

| SMILES | inhibition at 10 µM (FLT4 (VEGFR3); [1]) | inhibition at 10 µM (FLT4 (VEGFR3); [2]) | inhibition at 10 µM (LYN B; [3]) | inhibition at 10 µM (LYN B; [4]) | Ratio AβTotal IC50/Aβ42 IC50 (Aβ total) |
| --- | --- | --- | --- | --- | --- |
| CCn1nnc2c1CCC(Nc1nc3c(-c4ccc(F)cc4C)cccn3n1)C2 (centres unmarked) [Example 51, (1-Ethyl-4,5,6,7-tetrahydro-1H-benzotriazol-5-yl)-[8-(4-fluoro-2-methyl-phenyl)-[1,2,4]triazolo[1,5-a]pyridine-2-yl]-amine] | < 40% | 15% | < 40% | 7% | 2 |
| CCc1nn(C)c2c1CCC(Nc1nc3c(-c4ccc(F)cc4C)cccn3n1)C2 (centres unmarked) [Example 54, (3-Ethyl-1-methyl-4,5,6,7-tetrahydro-1H-indazol-6-yl)-[8-(4-fluoro-2-methyl-phenyl)-[1,2,4]triazolo[1,5-a]pyridine-2-yl]-amine] | < 40% | 38% | < 40% | 15% | 10 |
| CCn1ncc2c1CCC(Nc1nc3c(-c4ccc(F)cc4)cccn3n1)C2 (centres unmarked) [Example 55, (1-Ethyl-4,5,6,7-tetrahydro-1H-indazol-5-yl)-[8-(4-fluoro-phenyl)-[1,2,4]triazolo[1,5-a]pyridine-2-yl]-amine] | 40 to 80% | 42% | < 40% | 27% | 120 |
| CCn1ncc2c1CCC(Nc1nc3c(-c4ccccc4C)cccn3n1)C2 (centres unmarked) [Example 56, (1-Ethyl-4,5,6,7-tetrahydro-1H-indazol-5-yl)-[8-(2-methyl-phenyl)-[1,2,4]triazolo[1,5-a]pyridine-2-yl]-amine] | – | 35% | < 40% | 19% | 49 |
| CCn1ncc2c1CCC(Nc1nc3c(-c4ccccc4)cccn3n1)C2 (centres unmarked) [Example 57, (1-Ethyl-4,5,6,7-tetrahydro-1H-indazol-5-yl)-(8-phenyl-[1,2,4]triazolo[1,5-a]pyridine-2-yl)-amine] | 40 to 80% | 43% | < 40% | 20% | 104 |
| CCn1ncc2c1CCC(Nc1nc3c(-c4cccc(Cl)c4)cccn3n1)C2 (centres unmarked) [Example 59, [8-(3-Chloro-phenyl)-[1,2,4]triazolo[1,5-a]pyridine-2-yl]-(1-ethyl-4,5,6,7-tetrahydro-1H-indazol-5-yl)-amine] | < 40% | 39% | < 40% | 22% | 49 |
| CCn1ncc2c1CCC(Nc1nc3c(-c4cccnc4)cccn3n1)C2 (centres unmarked) [Example 63, (1-Ethyl-4,5,6,7-tetrahydro-1H-indazol-5-yl)-(8-pyridin-3-yl-[1,2,4]triazolo[1,5-a]pyridine-2-yl)-amine] | < 40% | 32% | < 40% | 13% | 85 |
| CCn1ncc2c1CCC(Nc1nc3c(-c4ccc(C)nc4)cccn3n1)C2 (centres unmarked) [Example 67, (1-Ethyl-4,5,6,7-tetrahydro-1H-indazol-5-yl)-[8-(6-methyl-pyridin-3-yl)-[1,2,4]triazolo[1,5-a]pyridine-2-yl]-amine] | < 40% | 33% | < 40% | 20% | 45 |
| CCn1ncc2c1CCC(Nc1nc3c(-c4cnccc4OC)cccn3n1)C2 (centres unmarked) [Example 68, (1-Ethyl-4,5,6,7-tetrahydro-1H-indazol-5-yl)-[8-(4-methoxy-pyridin-3-yl)-[1,2,4]triazolo[1,5-a]pyridine-2-yl]-amine] | 40 to 80% | 52% | < 40% | 22% | 241 |
| CCn1ncc2c1CCC(Nc1nc3c(-c4cccnc4OC)cccn3n1)C2 (centres unmarked) [Example 69, (1-Ethyl-4,5,6,7-tetrahydro-1H-indazol-5-yl)-[8-(2-methoxy-pyridin-3-yl)-[1,2,4]triazolo[1,5-a]pyridine-2-yl]-amine] | < 40% | 16% | < 40% | 15% | 60 |
| CCn1ncc2c1CCC(Nc1nc3c(-c4cncc(OC)c4)cccn3n1)C2 (centres unmarked) [Example 70, (1-Ethyl-4,5,6,7-tetrahydro-1H-indazol-5-yl)-[8-(5-methoxy-pyridin-3-yl)-[1,2,4]triazolo[1,5-a]pyridine-2-yl]-amine] | < 40% | 28% | < 40% | 22% | 60 |
| CCn1ncc2c1CCC(Nc1nc3c(-c4ccc(OC)nc4)cccn3n1)C2 (centres unmarked) [Example 71, (1-Ethyl-4,5,6,7-tetrahydro-1H-indazol-5-yl)-[8-(6-methoxy-pyridin-3-yl)-[1,2,4]triazolo[1,5-a]pyridine-2-yl]-amine] | 40 to 80% | 62% | < 40% | 24% | 332 |
| CCn1ncc2c1CCC(Nc1nc3c(-c4cncc(Cl)c4)cccn3n1)C2 (centres unmarked) [Example 73, [8-(5-Chloro-pyridin-3-yl)-[1,2,4]triazolo[1,5-a]pyridine-2-yl]-(1-ethyl-4,5,6,7-tetrahydro-1H-indazol-5-yl)-amine] | 40 to 80% | 50% | < 40% | 31% | 420 |
| CCn1ncc2c1CC[C@@H](Nc1nc3c(-c4ccc(F)c(Cl)c4)cccn3n1)C2 [Example R-61, (R)-[8-(3-Chloro-4-fluoro-phenyl)-[1,2,4]triazolo[1,5-a]pyridine-2-yl]-(1-ethyl-4,5,6,7-tetrahydro-1H-indazol-5-yl)-amine] | < 40% | 21% | < 40% | 17% | 1098 |
| CCn1ncc2c1CC[C@H](Nc1nc3c(-c4ccc(F)c(Cl)c4)cccn3n1)C2 [Example S-61, (S)-[8-(3-Chloro-4-fluoro-phenyl)-[1,2,4]triazolo[1,5-a]pyridine-2-yl]-(1-ethyl-4,5,6,7-tetrahydro-1H-indazol-5-yl)-amine] | < 40% | 24% | < 40% | 8% | 42 |
